# Measurements as given in patent publication US20080051319A1, “Inhibiting JNK Signaling Promotes CNS Axon Regeneration” (Children's Medical Center Corporation, priority 2006, published 2008).
# System: 4 week-old rat DRGs
# Test: in vitro neurite outgrowth assay on immobilized AP-Nogo-66
# Format: cell-based
# Protocol: JNK is a member of the mitogen-activated protein kinase (MAP kinase) family which is abundantly expressed in axons and growth cones, and has been implicated in numerous roles including cell stress and cell proliferation. […] Briefly, 4 week-old rat DRGs were dissected, dissociated and plated onto immobilized substrates (AP (100 ng/cm^2) or AP-Nogo-66 (100 ng/cm^2)). Cells were cultured for 24 h before fixation with 4% paraformaldehyde and staining with a neuronal-specific anti-β-tubulin III antibody (Tuj-1, Covance). The average lengths of the longest neurite in individual neurons were measured from at least 150 neurons per condition, from duplicate wells and from three independent experiments, and quantified as described previously. Immunohistochemistry was performed using antibodies against p75 (Chemicon).
smiles,measurement,value
Oc1c2ccccc2c2c3c(cccc13)N=N2 [SP600125],concentrations resulting in an abortion of neurite extension,above 5 μM
